Results from ChEMBL document CHEMBL1201862, “PubChem BioAssay data set” (2004).
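48-hour exposure; five concentrations; linearly interpolated endpoints. Here, GI50 denotes the concentration required for 50% inhibition of growth.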 Active and inactive are the calls of the source. Rule as the data show it: active = GI50 up to about 1.1 µM and inactive = higher.

Columns and labels:
Experiment in all cases: DTP human tumour cell line panel, 48 h
OVCAR-4 = system: OVCAR-4
SNB-75 = system: SNB-75
SW-620 = system: SW-620
RPMI-8226 = system: RPMI-8226
IGROV-1 = system: IGROV-1
HOP-92 = system: HOP-92
DMS-273 = system: DMS-273
MCF7 = system: MCF7
U-251 = system: U-251
NCI-H460 = system: NCI-H460
SF-268 = system: SF-268
SF-295 = system: SF-295
CCRF-CEM = system: CCRF-CEM
DMS-114 = system: DMS-114
SF-539 = system: SF-539
MDA-N = system: MDA-N
SK-OV-3 = system: SK-OV-3
NCI/ADR-RES = system: NCI/ADR-RES
K562 = system: K562
ACHN = system: ACHN
RXF 393 = system: RXF 393
HT-29 = system: HT-29
KM-20L2 = system: KM-20L2
T47D = system: T47D
LXFL 529 = system: LXFL 529
LOX IMVI = system: LOX IMVI
M14 = system: M14
HCT-116 = system: HCT-116
TK-10 = system: TK-10
OVCAR-8 = system: OVCAR-8
MDA-MB-435 = system: MDA-MB-435
Malme-3M = system: Malme-3M
SK-MEL-28 = system: SK-MEL-28
DU-145 = system: DU-145
COLO 205 = system: COLO 205
MDA-MB-231 = system: MDA-MB-231
MOLT-4 = system: MOLT-4
UO-31 = system: UO-31
EKVX = system: EKVX
OVCAR-5 = system: OVCAR-5
HCT-15 = system: HCT-15
OVCAR-3 = system: OVCAR-3
CAKI-1 = system: CAKI-1
NCI-H522 = system: NCI-H522
A549 = system: A549
M19-MEL = system: M19-MEL
KM12 = system: KM12
PC-3 = system: PC-3
HOP-62 = system: HOP-62
XF498 = system: XF498
DLD-1 = system: DLD-1
BT-549 = system: BT-549
SR = system: SR
HL-60 = system: HL-60
Hs-578T = system: Hs-578T
RXF 631 = system: RXF 631
HCC 2998 = system: HCC 2998
SN12C = system: SN12C
A498 = system: A498
NCI-H23 = system: NCI-H23
UACC-62 = system: UACC-62
HOP-18 = system: HOP-18
786-0 = system: 786-0
UACC-257 = system: UACC-257
SK-MEL-2 = system: SK-MEL-2
SK-MEL-5 = system: SK-MEL-5
SNB-19 = system: SNB-19
NCI-H226 = system: NCI-H226

SMILES: CC(=O)Oc1ccc(C(c2ccc(OC(C)=O)cc2)c2ccccn2)cc1 [BISACODYL]
- GI50 (OVCAR-4): 0.146 µM (active)
- GI50 (SNB-75): 28.5 µM (inactive)
- GI50 (SW-620): > 100 µM (inactive)
- GI50 (RPMI-8226): 65.3 µM (inactive)
- GI50 (IGROV-1): 71.6 µM (inactive)
- GI50 (HOP-92): 36.8 µM (inactive)
- GI50 (DMS-273): > 100 µM (inactive)
- GI50 (MCF7): 0.378 µM (active)
- GI50 (U-251): > 97.5 µM (inactive)
- GI50 (NCI-H460): 99.1 µM (inactive)
- GI50 (SF-268): > 100 µM (inactive)
- GI50 (SF-295): 64.3 µM (inactive)
- GI50 (CCRF-CEM): 71.1 µM (inactive)
- GI50 (DMS-114): 0.57 µM (active)
- GI50 (SF-539): > 91.2 µM (inactive)
- GI50 (MDA-N): > 87.9 µM (inactive)
- GI50 (SK-OV-3): 59.4 µM (inactive)
- GI50 (NCI/ADR-RES): 1.32 µM (inactive)
- GI50 (K562): 59.4 µM (inactive)
- GI50 (ACHN): 78.7 µM (inactive)
- GI50 (RXF 393): 13.8 µM (inactive)
- GI50 (HT-29): > 93.5 µM (inactive)
- GI50 (KM-20L2): 54.2 µM (inactive)
- GI50 (T47D): 0.228 µM (active)
- GI50 (LXFL 529): 28.8 µM (inactive)
- GI50 (LOX IMVI): 29.2 µM (inactive)
- GI50 (M14): > 93.5 µM (inactive)
- GI50 (HCT-116): 70.6 µM (inactive)
- GI50 (TK-10): 81.3 µM (inactive)
- GI50 (OVCAR-8): 1.4 µM (inactive)
- GI50 (MDA-MB-435): 76.4 µM (inactive)
- GI50 (Malme-3M): 78.5 µM (inactive)
- GI50 (SK-MEL-28): > 100 µM (inactive)
- GI50 (DU-145): > 84.3 µM (inactive)
- GI50 (COLO 205): 0.406 µM (active)
- GI50 (MDA-MB-231): 54.7 µM (inactive)
- GI50 (MOLT-4): 57 µM (inactive)
- GI50 (UO-31): 69.7 µM (inactive)
- GI50 (EKVX): 18.8 µM (inactive)
- GI50 (OVCAR-5): 22.1 µM (inactive)
- GI50 (HCT-15): 39.7 µM
- GI50 (OVCAR-3): 0.219 µM (active)
- GI50 (CAKI-1): > 100 µM (inactive)
- GI50 (NCI-H522): 76.7 µM (inactive)
- GI50 (A549): 91.4 µM (inactive)
- GI50 (M19-MEL): 97.5 µM (inactive)
- GI50 (KM12): 70.3 µM (inactive)
- GI50 (PC-3): 26.5 µM (inactive)
- GI50 (HOP-62): > 92.7 µM (inactive)
- GI50 (XF498): 40.1 µM (inactive)
- GI50 (DLD-1): 7.11 µM (inactive)
- GI50 (BT-549): 0.0843 µM (active)
- GI50 (SR): 64.4 µM (inactive)
- GI50 (HL-60): 36.2 µM (inactive)
- GI50 (Hs-578T): 0.232 µM (active)
- GI50 (RXF 631): > 100 µM (inactive)
- GI50 (HCC 2998): 2.9 µM (inactive)
- GI50 (SN12C): 7.16 µM (inactive)
- GI50 (A498): 59 µM (inactive)
- GI50 (NCI-H23): 3.83 µM (inactive)
- GI50 (UACC-62): 47.5 µM (inactive)
- GI50 (HOP-18): > 47 µM (inactive)
- GI50 (786-0): > 91.6 µM (inactive)
- GI50 (UACC-257): > 87.3 µM (inactive)
- GI50 (SK-MEL-2): 98.6 µM (inactive)
- GI50 (SK-MEL-5): 68.4 µM (inactive)
- GI50 (SNB-19): > 100 µM (inactive)
- GI50 (NCI-H226): 87.3 µM (inactive)

SMILES: COc1ccc(S(=O)(=O)N(C)CC(=O)O)cc1
- GI50 (OVCAR-4): > 100 µM (inactive)
- GI50 (SNB-75): > 100 µM (inactive)
- GI50 (SW-620): > 100 µM (inactive)
- GI50 (RPMI-8226): > 100 µM (inactive)
- GI50 (IGROV-1): > 100 µM (inactive)
- GI50 (HOP-92): > 100 µM (inactive)
- GI50 (DMS-273): > 100 µM (inactive)
- GI50 (U-251): > 100 µM (inactive)
- GI50 (NCI-H460): > 100 µM (inactive)
- GI50 (SF-268): > 100 µM (inactive)
- GI50 (SF-295): > 100 µM (inactive)
- GI50 (CCRF-CEM): > 100 µM (inactive)
- GI50 (SF-539): > 100 µM (inactive)
- GI50 (SK-OV-3): > 100 µM (inactive)
- GI50 (K562): > 100 µM (inactive)
- GI50 (ACHN): > 100 µM (inactive)
- GI50 (RXF 393): > 100 µM (inactive)
- GI50 (HT-29): > 100 µM (inactive)
- GI50 (KM-20L2): > 100 µM (inactive)
- GI50 (LXFL 529): > 100 µM (inactive)
- GI50 (LOX IMVI): > 100 µM (inactive)
- GI50 (M14): > 100 µM (inactive)
- GI50 (TK-10): > 100 µM (inactive)
- GI50 (OVCAR-8): > 100 µM (inactive)
- GI50 (Malme-3M): > 100 µM (inactive)
- GI50 (SK-MEL-28): > 100 µM (inactive)
- GI50 (COLO 205): > 100 µM (inactive)
- GI50 (MOLT-4): > 100 µM (inactive)
- GI50 (UO-31): > 100 µM (inactive)
- GI50 (EKVX): > 100 µM (inactive)
- GI50 (OVCAR-5): > 100 µM (inactive)
- GI50 (HCT-15): > 100 µM
- GI50 (OVCAR-3): > 100 µM (inactive)
- GI50 (CAKI-1): > 100 µM (inactive)
- GI50 (NCI-H522): > 100 µM (inactive)
- GI50 (A549): > 100 µM (inactive)
- GI50 (M19-MEL): > 100 µM (inactive)
- GI50 (KM12): > 100 µM (inactive)
- GI50 (XF498): > 100 µM (inactive)
- GI50 (DLD-1): > 100 µM (inactive)
- GI50 (HL-60): > 100 µM (inactive)
- GI50 (RXF 631): > 100 µM (inactive)
- GI50 (HCC 2998): > 100 µM (inactive)
- GI50 (SN12C): > 100 µM (inactive)
- GI50 (A498): > 100 µM (inactive)
- GI50 (NCI-H23): > 100 µM (inactive)
- GI50 (UACC-62): > 100 µM (inactive)
- GI50 (HOP-18): > 100 µM (inactive)
- GI50 (786-0): > 100 µM (inactive)
- GI50 (UACC-257): > 100 µM (inactive)
- GI50 (SK-MEL-2): > 100 µM (inactive)
- GI50 (SK-MEL-5): > 100 µM (inactive)
- GI50 (SNB-19): > 100 µM (inactive)
- GI50 (NCI-H226): > 100 µM (inactive)
